Data taken from ChEMBL document CHEMBL3243958, “Bufotenine esters” (J Med Chem, 1979).

test system: not listed separately; assay: Chloroform to aqueous buffer partition coefficient, log P of the compound at pH 7.4 by shake flask method; assay type: physicochemical; settings: not given

| Compound | logP |
| --- | --- |
| CN(C)CCc1c[nH]c2ccc(O)cc12 [BUFOTENINE] | 0.06 |
| CCC(=O)Oc1ccc2[nH]cc(CCN(C)C)c2c1.O=C(O)C(=O)O | 5.6 |
| COc1ccc2[nH]cc(CCN(C)C)c2c1 [MEBUFOTENIN] | 3.3 |
| CC(=O)Oc1ccc2[nH]cc(CCN(C)C)c2c1.O=C(O)C(=O)O | 2.31 |
| CN(C)CCc1c[nH]c2ccccc12 | 2.61 |

target: Serotonin 1 (5-HT1) receptor (Rattus norvegicus, UniProt P28564+P30940+P19327+P28565); assay: Antagonist activity at 5-HT1 receptor in Sprague-Dawley rat assessed as inhibition of 5-HT-induced stomach fundus contraction; settings: not given

| Compound | pA2 |
| --- | --- |
| CN(C)CCc1c[nH]c2ccc(O)cc12 [BUFOTENINE] | 7.41 |
| CC(=O)Oc1ccc2[nH]cc(CCN(C)C)c2c1.O=C(O)C(=O)O | 7.71 |
| CCCC(=O)Oc1ccc2[nH]cc(CCN(C)C)c2c1.O=C(O)C(=O)O | 7.32 |
| CN(C)CCc1c[nH]c2ccccc12 | 6 |

test system: not listed separately; assay: Chemical stability of the compound assessed as ester hydrolysis in Tyrode's solution at 37 degC for 10 to 15 mins; assay type: physicochemical; settings: read-out: Drug metabolism

| Compound | degraded |
| --- | --- |
| CCC(=O)Oc1ccc2[nH]cc(CCN(C)C)c2c1.O=C(O)C(=O)O | 5% |
| CN(C)CCc1c[nH]c2ccc(OC(=O)C(C)(C)C)cc12 | 1% |
| CC(C)C(=O)Oc1ccc2[nH]cc(CCN(C)C)c2c1 | 1% |
| CC(=O)Oc1ccc2[nH]cc(CCN(C)C)c2c1.O=C(O)C(=O)O | 5% |
| CCCC(=O)Oc1ccc2[nH]cc(CCN(C)C)c2c1.O=C(O)C(=O)O | 5% |

test system: not listed separately; assay: Stability in Sprague-Dawley rat stomach fundus strip assessed as hydrolysis; assay type: ADME, tissue-based; settings: read-out: Drug metabolism

| Compound | metabolised |
| --- | --- |
| CCC(=O)Oc1ccc2[nH]cc(CCN(C)C)c2c1.O=C(O)C(=O)O | 15% |
| CN(C)CCc1c[nH]c2ccc(OC(=O)C(C)(C)C)cc12 | 15% |
| CC(C)C(=O)Oc1ccc2[nH]cc(CCN(C)C)c2c1 | 15% |
| CC(=O)Oc1ccc2[nH]cc(CCN(C)C)c2c1.O=C(O)C(=O)O | < 5% |
| CCCC(=O)Oc1ccc2[nH]cc(CCN(C)C)c2c1.O=C(O)C(=O)O | 15% |
